# Literature values in patent publication US20090088482A1, “Compositions and Methods For Treating Heart Failure” (The Trustees Of Columbia University In The City New York, priority 2003, published 2009).
# Details: ten of 15 LVAD patients; with ACE inhibition, β-1 selective blockade, spironolactone; cited from earlier work
compound,measurement,value
"CC(C)(C)NCC(O)c1cc(Cl)c(N)c(Cl)c1 (stereo not shown) [Clen, clenbuterol]",rate of myocardial recovery (LVAD explantation for recovery),67%
